pKd: −log10 of the molar value. Counter-ions that a name gives are not always drawn. Like-named read-outs stand apart in the source and are kept apart here.
Experiments:
[1] = Noncompartmental plasma pharmacokinetics of ondansetron after IV co-administration with tariquidar; type: in vivo, rat; details: ondansetron 10 mg/kg with tariquidar, wild type rats vs wild-type (and Pgp KO) rats
Procedure: The study was conducted under the protocol approved by the Institutional Animal Care and Use Committee at Rutgers University. Wild-type Sprague Dawley rats (males of 10–12 weeks, weighing 300–350 g and females of 12–14 weeks, weighing 250–280 g) were purchased from Horizon Discovery (previously Sage Labs Inc., Boyertown, PA). Animals were housed in a vivarium under controlled temperatures and 12/12 h dark/light cycle with free access to food and water. Right jugular vein was cannulated to allow for accurate intravenous dosing using polyethylene tubing (PE-50, Braintree Scientific, Braintree, MA). The surgery was performed under light isoflurane anesthesia, and after that animals were allowed to recover for 24 h. Intradermal bupivacaine and subcutaneous meloxicam were provided as analgesia. […]
A standard noncompartmental analysis was performed using average plasma concentration–time data (samples obtained from sequential and terminal experiments were combined) in Phoenix WinNonlin version 8.1 (Certara, Princeton, NJ). For plasma, the area under the plasma concentration–time curve from time zero to infinity (AUCplasma), systemic clearance (CL), volume of distribution at steady state (Vd,ss), half-life (t1/2,plasma), and mean residence time (MRT) were calculated. […]

[2] = CNS disposition of ondansetron (brain, spinal cord, CSF) after IV co-administration with tariquidar; type: in vivo, rat; details: ondansetron 10 mg/kg + tariquidar 7.5 mg/kg IV
Procedure: (§1) Animals previously used in the plasma pharmacokinetics study were included following a two-week washout period; and additional animals were added to achieve n = 4–6 per time point. […] Groups of rats were sacrificed at 0.16, 0.25, 0.5, 1, 1.5, 2, and 2.5 h under isoflurane anesthesia, and terminal samples were collected including plasma, brain, spinal cord, and cerebrospinal fluid from cisterna magna (CSF) and stored at −20°C.
Agilent 1260 Infinity HPLC equipped with a photodiode array detector was used (Agilent, Santa Clara, CA, USA) in this work. […] Inter-day and intra-day accuracy and precision of the assay were within 15%.
A standard noncompartmental analysis was performed using average plasma concentration–time data (samples obtained from sequential and terminal experiments were combined) in Phoenix WinNonlin version 8.1 (Certara, Princeton, NJ). For plasma, the area under the plasma concentration–time curve from time zero to infinity (AUCplasma), systemic clearance (CL), volume of distribution at steady state (Vd,ss), half-life (t1/2,plasma), and mean residence time (MRT) were calculated. For brain, spinal cord, and CSF the area under the tissue concentration–time curve (AUCtissue) and half-life in tissue (t1/2,tissue) were reported.
However, since the AUC values were based on terminal samples, no statistical comparison among the groups could be performed.

[3] = Semi-physiological pharmacokinetic model of ondansetron systemic and CNS disposition (estimated parameters); type: in vivo, rat; details: for k12 Distribution rate constant to peripheral distribution compartment / k13 Distribution rate constant to brain compartment / k14 Distribution rate constant to spinal cord compartment / k15 Distribution rate constant to CSF compartment / k21 Distribution rate constant from peripheral distribution compartment / k31 Distribution rate constant from brain compartment / k35=45 Rate constant for brain/spinal cord and CSF exchange / k41 Distribution rate constant from spinal cord compartment / k51 Distribution rate constant from CSF compartment / k53=54 Rate constant for brain/spinal cord and CSF exchange: model estimate shared across WT, KO, OT; for kPgp,TRQ Rate constant for Pgp-mediated efflux from the CNS for OT animals / kPgp Rate constant for Pgp-mediated efflux from the CNS: model estimate; for kPgp,TRQ Rate constant for Pgp-mediated efflux from the CNS for OT animals: OT group (with tariquidar); for kPgp Rate constant for Pgp-mediated efflux from the CNS: wild type animals, ondansetron alone; for Vd / k el: rat, plasma, brain, spinal cord, CSF, iv, 10 mg/kg
Procedure: Interconnectivity of CNS compartments followed animal physiology (A3 - brain, A4 – spinal cord, A5 - CSF), and previously published CNS model were consulted. The volume of the brain (Vbrain) was fixed to a previously determined value of 1.8 mL which was also in agreement with the brain weight reported before. The volume of the CSF compartment (VCSF) was fixed to 0.25 mL [25]. The volume of the spinal cord (Vspinal) was measured and reported in our previous study and was fixed to 0.6 mL. First order rate constant were used to describe a bidirectional passive permeability between the central disposition compartment (with the volume V1) and various CNS compartments (k13, k31, k14, k41, k15, k51) and distributional terms between CNS compartments (k35, k53, k45, k54). Pgp efflux at the BBB was described using a first-order term (kpgp) and was included for wild type animals only; the term was set to zero in KO rats. The following differential Eqs. (1–5) were used: 1 dA1/dt=k21·A2+k31·A3+k41·A4+k51·A5-kel+k12+k13+k14+k15·A1+kPgp·A3+kPgp·A4 2 dA2/dt=k12·A1-k21·A2 3 dA3/dt=k13·A1+k53·A5-k31+k35+kPgp·A3 4 dA4/dt=k14·A1+k54·A5-k41+k45+kPgp·A4 5 dA5/dt=k15·A1+k35·A3+k45·A4-k51+k53+k54·A5
(§2) The whole dataset included mean ondansetron profiles of OT-M and OT-F in plasma, brain, spinal cord, and CSF obtained in this study and previous data for male and female WT and KO animals. […] Several functions to describe tariquidar-induced Pgp inhibition were considered. […] The final model included a separate term for describing Pgp function in OT groups (kPgp,TRQ). Other parameters were shared across WT, KO, and OT models. All model parameters were estimated. A separate set of parameters was estimated for female cohorts (WT-F, KO-F, OT-F) using the same final model structure.
R (version 3.31) and Rstudio (version 1.2.5001, Boston, MA, USA) with Ubiquity package were used for model development as described before.

[4] = ondansetron alone 10 mg/kg IV, cited from earlier work
[5] = set-up: method as in PMID 15275776; details: cited from earlier work
[6] = Tariquidar concentrations in plasma, brain, spinal cord and CSF after IV administration; type: in vivo, rat; details: 7.5 mg/kg IV; for half-life: Sprague Dawley, rat, plasma
Procedure: as §1
Agilent 1260 Infinity HPLC equipped with a photodiode array detector was used (Agilent, Santa Clara, CA, USA) in this work.
Data analysis was performed separately for male (OT-M) and female (OT-F) rat groups.

Pgp [7] = assay: Inhibition of Pgp efflux at the CNS by tariquidar in vivo; set-up: species or system rat; details: tariquidar 7.5 mg/kg IV, 30 min before ondansetron 10 mg/kg IV, wild type rats
Procedure: as §1, §2

[8] = type: in vivo
Pgp [9] = details: 30 min after intravenous injection of tariquidar doses above 6 mg/kg; cited from earlier work
Pgp [10] = details: read-out: affinity to Pgp (KD); cited from earlier work
Pgp [11] = details: cited from earlier work

## Cc1nccn1CC1CCc2c(c3ccccc3n2C)C1=O (stereo not shown) [Ondansetron, Ondansetron hydrochloride]
[1]
  plasma ondansetron concentration in comparison to ondansetron administered alone: almost doubled
[2]; Brain, OT-F: female rats
  AUCtissue,0-∞: 19.16 h⋅μg⋅mL^−1
[2]; Brain, OT-M: male rats
  AUCtissue,0-∞: 22.0 h⋅μg⋅mL^−1
[2]; CSF, OT-F: female rats
  AUCtissue,0-∞: 1.49 h⋅μg⋅mL^−1
[2]; CSF, OT-M: male rats
  AUCtissue,0-∞: 1.37 h⋅μg⋅mL^−1
[2]; Spinal Cord, OT-F: female rats
  AUCtissue,0-∞: 15.6 h⋅μg⋅mL^−1
[2]; Spinal Cord, OT-M: male rats
  AUCtissue,0-∞: 15.0 h⋅μg⋅mL^−1
[3]; Female
  k12 Distribution rate constant to peripheral distribution compartment: 4.37 h⁻¹
  k13 Distribution rate constant to brain compartment: 13.0 h⁻¹
  k14 Distribution rate constant to spinal cord compartment: 3.60 h⁻¹
  k15 Distribution rate constant to CSF compartment: 0.518 h⁻¹
  k21 Distribution rate constant from peripheral distribution compartment: 2.32 h⁻¹
  k31 Distribution rate constant from brain compartment: 25.2 h⁻¹
  k35=45 Rate constant for brain/spinal cord and CSF exchange: 0.914 h⁻¹
  k41 Distribution rate constant from spinal cord compartment: 31.5 h⁻¹
  k51 Distribution rate constant from CSF compartment: 47.3 h⁻¹
  k53=54 Rate constant for brain/spinal cord and CSF exchange: 79.9 h⁻¹
  kPgp,TRQ Rate constant for Pgp-mediated efflux from the CNS for OT animals: 0.0001 h⁻¹
  kPgp Rate constant for Pgp-mediated efflux from the CNS: 101 h⁻¹
[3]; Male
  k12 Distribution rate constant to peripheral distribution compartment: 2.14 h⁻¹
  k13 Distribution rate constant to brain compartment: 17.6 h⁻¹
  k14 Distribution rate constant to spinal cord compartment: 9.37 h⁻¹
  k15 Distribution rate constant to CSF compartment: 0.081 h⁻¹
  k21 Distribution rate constant from peripheral distribution compartment: 2.62 h⁻¹
  k31 Distribution rate constant from brain compartment: 39.6 h⁻¹
  k35=45 Rate constant for brain/spinal cord and CSF exchange: 0.928 h⁻¹
  k41 Distribution rate constant from spinal cord compartment: 71.0 h⁻¹
  k51 Distribution rate constant from CSF compartment: 6.84 h⁻¹
  k53=54 Rate constant for brain/spinal cord and CSF exchange: 66.6 h⁻¹
  kPgp,TRQ Rate constant for Pgp-mediated efflux from the CNS for OT animals: 0.002 h⁻¹
  kPgp Rate constant for Pgp-mediated efflux from the CNS: 81.9 h⁻¹
[3]; female, Sprague Dawley, with tariquidar (co-administered), read-out: V1,TRQ Central volume of distribution
  Vd: 0.0113 L
[3]; female, Sprague Dawley, with tariquidar (co-administered), read-out: kel,TRQ Systemic elimination rate constant for OT animals (converted)
  k el: 0.000839 s⁻¹
[3]; female, read-out: V1 Central volume of distribution
  Vd: 0.0133 L
[3]; female, read-out: kel Systemic elimination rate constant (converted)
  k el: 0.00141 s⁻¹
[3]; male, Sprague Dawley, with tariquidar (co-administered), read-out: V1,TRQ Central volume of distribution
  Vd: 0.0127 L
[3]; male, Sprague Dawley, with tariquidar (co-administered), read-out: kel,TRQ Systemic elimination rate constant for OT animals (converted)
  k el: 0.000939 s⁻¹
[3]; male, read-out: V1 Central volume of distribution
  Vd: 0.0175 L
[3]; male, read-out: kel Systemic elimination rate constant (converted)
  k el: 0.001 s⁻¹
[4]; Brain, female Pgp knockout rats
  KP_KO: 3.04
[4]; Brain, female wild type rats
  KP_WT: 0.71
[4]; Brain, male Pgp knockout rats
  KP_KO: 2.52
[4]; Brain, male wild type rats
  KP_WT: 0.46
[4]; CSF, female Pgp knockout rats
  KP_KO: 0.22
[4]; CSF, female wild type rats
  KP_WT: 0.11
[4]; CSF, male Pgp knockout rats
  KP_KO: 0.19
[4]; CSF, male wild type rats
  KP_WT: 0.06
[4]; Spinal Cord, female Pgp knockout rats
  KP_KO: 1.34
[4]; Spinal Cord, female wild type rats
  KP_WT: 0.47
[4]; Spinal Cord, male Pgp knockout rats
  KP_KO: 1.78
[4]; Spinal Cord, male wild type rats
  KP_WT: 0.39
[5]
  effect of intrathecal administration in a neuropathic animal model: dose-dependent antinociceptive effect

## COc1cc2c(cc1OC)CN(CCc1ccc(NC(=O)c3cc(OC)c(OC)cc3NC(=O)c3cnc4ccccc4c3)cc1)CC2 [Tariquidar]
[6]; female rats
  half-life: 2.2 h
[6]; male rats
  half-life: 3.1 h
[6]; rats, limit of detection 50 ng/mL for CSF
  Tariquidar detection in CSF samples: could not be detected
Pgp [7]
  inhibition of Pgp efflux of ondansetron in the brain and spinal cord: almost complete inhibition
[8]; tariquidar 15 mg/kg 30 min before ondansetron 10 mg/kg
  toxicity in rats immediately after ondansetron injection: toxicity
[8]; tariquidar dose decreased to 7.5 mg/kg, ondansetron 10 mg/kg
  toxicity in rats after ondansetron injection: eliminating this toxicity
Pgp [9]
  inhibition of Pgp: complete inhibition
Pgp [10]
  pKd: 8.29
Pgp [11]
  inhibitory activity (IC50): nM-range

— publication PMC11263240 (Pharmaceutical Research, 2024)
